Measured values from publication PMC10666548, “Identification of the bacterial metabolite aerugine as potential trigger of human dopaminergic neurodegeneration” (Environment international, 2023).
“Also recorded” adds a separate entry of the source.

Assays:
[1] = Cytotoxicity to proliferating (d0) LUHMES cells, calcein-AM & H-33342 imaging; type: cell-based; details: human, proliferating LUHMES d0, 24 h exposure, read-out: EC50 (half-maximal cytotoxic potency), cell viability
Protocol: LUHMES cells were cultivated as described previously ([Krug et al., 2013]; [Schildknecht et al., 2013]; [Scholz et al., 2011]). In brief, cells were grown in standard cell culture flasks pre-coated with 50 μg/ml PLO and 1 μg/ml fibronectin in water for at least 3 h at 37 °C. The maintenance culture was kept in proliferation medium consisting of advanced DMEM/F12 with 2 mM L-glutamine, 1x N2-supplement, and 40 ng/ml FGF-2. The cells were incubated at 37 °C with 5% CO2 and passaged trice a week when reaching 75–90% confluence. They were used up to passage 18. […]
Neurite area (NA) and viability (V) were assessed as described previously ([Stiegler et al., 2011]). […] Image acquisition was performed using an Array-Scan VTI HCS Reader (Cellomics, PA, USA) equipped with a Hamamatsu ORCA-ER camera. […]
Nuclei were identified in channel 1 depending on intensity, area, size and shape. […] The NA was automatically calculated by excluding the VCSAs from the VCSs. […]
Fig. 3. […] The cell viability was assessed 24 h later by calcein-AM & H-33342 staining and high content imaging. […] The overall cell viability was assessed by measuring resazurin reduction in technical triplicates. […] The cell viability was assessed 24 h later by calcein-AM & H-33342 staining and high content imaging. […]

[2] = tested on: C. elegans strains BY200 and Punc-25; assay: C. elegans lethality analysis (eight day survival test); type: in vivo, Caenorhabditis elegans; details: L4 larval stage, 8, 40 and 100 μM, up to 8 days
Protocol: The strain BY200 Pdat-1::gfp (vtIs1), dat-1::GFP(vtls1) was kindly provided by the Blakely laboratory, Vanderbilt University Medical Center and the strain Punc-25:GFP was obtained from the Caenorhabditis Genetics Center (CGC, University of Minnesota, Minneapolis, MN, USA). The worms were maintained in nematode growth medium (NGM) plates that contain: 3 g/l NaCl, 17 g/l agar, 2.5 g/l peptone, 1 mM CaCl2, 5 mg/l cholesterol, 1 mM MgSO4, 25 mM potassium phosphate buffer (pH 6.0) with 1.25 ml nystatin and 50 mg/l streptomycin sulfate) and Escherichia coli (E. coli) OP50 strain was used as food ([Brenner, 1974]). Synchronization of worms was carried out using extraction solution (0.2% NaOCl, 0.5 M NaOH, in distilled water). The first larval stage (L1) population were obtained by isolating eggs with a 30% sucrose gradient, washed with sterile water, and resuspended in M9 buffer (42 mM Na2HPO4, 22 mM KH2PO4, 8.5 mM NaCl, and 1 mM MgSO4) ([Sulston and Hodgkin, 1998]).
For the lethality analysis, 40 to 60 BY200 and P unc-25 worms at L4 larval stage were exposed to vehicle or aerugine (8, 40 and 100 μM) in OP50-seeded NGM plates from day 0 until day 8. […] Moreover, worms were transferred to fresh plates for the first three days of treatment, which coincide with the egg laying days to avoid mixing of different generations. […]

Structure (SMILES): OCC1CSC(c2ccccc2O)=N1 (centres unmarked) [aerugine, 2-[4-(hydroxymethyl)-4,5-dihydro-1,3-thiazol-2-yl]phenol]
- EC50 at 24 h [1]: 13 ± 0.2 µM
- general survival of worms [2]: neither triggered death during the first 2 days; also recorded: not affected
